Experiments:
[1] = test system: VSC in whole saliva; assay: Reduction of VSC in whole saliva incubated overnight with cysteine and an amino acid (GC); details: for VSC Reduction (%): relative to saliva and cysteine alone, 10% of 0.1% amino acid solution added to 50% whole saliva, overnight incubation; for Effect on VSC in saliva (in words): whole saliva with cysteine
Procedure: The effect of serine and other amino acids on VSC was tested. Whole saliva was incubated overnight with cysteine and an additional amino acid selected from serine, proline, tyrosine, glycine, aspargine, glutamic acid, and histidine. In this experiment, 10% of 0.1% amino acid solution was added to 50% whole saliva. GC measurements were made for VSC.

[2] = test system: indole in whole saliva; assay: Indole production in whole saliva incubated with tryptophan, zinc lactate with and without serine (GC); details: for Indole (ppm): serine 0.42% where present, whole saliva with tryptophan 0.14%, overnight at 37° C.
Procedure: The effect of zinc lactate and serine on indole was tested. Whole saliva with tryptophan (0.14%), various concentrations of zinc lactate, and when necessary, serine (0.42%), was incubated overnight at 37° C. After 24 h, the samples were allowed to cool to 25° C. The samples were extracted with hexanes (2 mL) and the organic layer (1 mL) was used for GC quantification.

[3] = test system: VSC in whole saliva; assay: Headspace VSC in whole saliva incubated with zinc lactate with and without serine (GC); details: zinc lactate 0.16%
Procedure: The effect of zinc lactate and serine on VSC was tested. Whole saliva with tryptophan (0.14%), zinc lactate (0.16%), and when necessary, serine (0.42%), was incubated overnight at 37° C. After 24 h, the samples were allowed to cool to 25° C. The samples were then quantified for headspace VSC using a GC.

[4] = test system: indole in whole saliva; assay: Reduction of indole in whole saliva incubated with tryptophan and serine (hexanes extraction, GC); details: whole saliva with tryptophan 0.14%; for Area Under the Curve (AUC), indole by GC: overnight at 37° C., control without serine 642403
Procedure: The effect of serine on indole was tested. Whole saliva with tryptophan (0.14%) and various concentrations of serine was incubated overnight at 37° C. After 24 h, the samples were allowed to cool to 25° C. The samples were extracted with hexanes and the organic layer was used for GC quantification.

SMILES: NC(=O)C[C@H](N)C(=O)O [Asparagine]
- VSC Reduction (%) [1]: −2.14%

SMILES: CC(O)C(=O)[O-].CC(O)C(=O)[O-].[Zn+2] (stereo not shown) [Zinc Lactate, zinc lactate]
- Indole (ppm) ([2]; zinc lactate 0.09%): 9.99 ppm
- Indole (ppm) ([2]; zinc lactate 0.16%): 5.09 ppm
- Indole (ppm) ([2]; zinc lactate 0.23%): 4.71 ppm
- VSC (ppb) ([3]; headspace VSC, whole saliva with tryptophan 0.14%, serine 0.42% where present, overnight at 37° C.): 109.25 ppb

SMILES: O=C(O)[C@@H]1CCCN1 [Proline, proline]
- VSC Reduction (%) [1]: 6.99%

SMILES: N[C@@H](Cc1c[nH]cn1)C(=O)O [Histidine, histidine]
- VSC Reduction (%) [1]: 1.36%

SMILES: N[C@@H](Cc1ccc(O)cc1)C(=O)O [Tyrosine, tyrosine]
- VSC Reduction (%) [1]: 0.06%

SMILES: NCC(=O)O [Glycine, glycine]
- VSC Reduction (%) [1]: 14%

SMILES: N[C@@H](CO)C(=O)O [Serine, (2S)-2-amino-3-hydroxypropanoic acid]
- Effect of serine added to zinc lactate on indole production (in words) ([2]; various concentrations of zinc lactate, serine 0.42%): enhances the effect of zinc lactate and reduces indole production
- Effect of serine added to zinc lactate on VSC production (in words) ([3]; serine 0.42%): enhances the effect of zinc lactate and reduces VSC production
- Area Under the Curve (AUC), indole by GC ([4]; serine 0.21%): 584720
- Area Under the Curve (AUC), indole by GC ([4]; serine 0.42%): 532053
- Area Under the Curve (AUC), indole by GC ([4]; serine 0.84%): 542136
- Effect on amount of indole in saliva (in words) [4]: able to reduce amount of indole in saliva
- VSC Reduction (%) [1]: 36.56%
- Effect on VSC in saliva (in words) [1]: greatest percent reduction of VSC
- Effect on VSC in saliva (in words) ([1]; listed as serine): able to reduce VSC in saliva

SMILES: N[C@@H](CCC(=O)O)C(=O)O [Glutamic acid, glutamic acid]
- VSC Reduction (%) [1]: −5.2%

— patent US20120201762A1, “ORAL CARE COMPOSITION” (COLGATE-PALMOLIVE COMPANY, priority 2009, published 2012)
